{
  "source": "patent US20100286200A1",
  "about": "“COMBINATION OF METFORMIN AND AN MTP INHIBITOR” (JANSSEN PHARMACEUTICA NV, priority 2008, published 2010)",
  "key": {"[1]": {"conditions": "cited from earlier work"}, "[2]": {"test_system": "subjects with type 2 diabetes mellitus undergoing metformin treatment", "assay": "Proof-of-concept 12-week double-blind, randomized, placebo-controlled study of the MTP inhibitor in subjects on metformin treatment", "format": "in vivo, human", "description": "Proof-of-concept study of combinations of metformin and the MTP inhibitor (+)-phenyl-(4-{4-[(4′-trifluoromethyl-biphenyl-2-carbonyl)-amino]-phenyl}-piperidin-1-yl)-acetic acid methyl ester\nSafety and efficacy of the MTP inhibitor (+)-phenyl-(4-{4-[(4′-trifluoromethyl-biphenyl-2-carbonyl)-amino]-phenyl}-piperidin-1-yl)-acetic acid methyl ester in the treatment of subjects with type 2 diabetes mellitus undergoing metformin treatment has been investigated. Three dosing regimens of the MTP inhibitor, 5-10-15 mg bid, were compared to placebo in a double-blind, randomized, parallel-group study design of 12 weeks wherein all subjects were following metformin treatment. All subjects remained on a calorically appropriate, low fat (≦30%) diet, being in accordance with the local practice guidelines for the treatment of type 2 diabetes.\nSubjects randomized into the study had to have type 2 diabetes for at least 3 months and remained on a stable metformin monotherapy for at least 2 months. There were 88, 84, 91 and 89 patients randomized to placebo, 5 mg, 10 mg and 15 mg BID. Mean age was 55 years and there were slightly more males than females randomized into the study (males:females—54%:46%).\nThe mean baseline glycosylated hemoglobin (HbA1c) was 7.8±0.8% (mean±SD) and the mean plasma glucose was 9.1±1.80 mmol/L (mean±SD). The majority (68%) of subjects had HbA1c levels≦8%.\nMean weight at baseline was 94.9 kg and varied between 92.8 kg and 96.7 kg in different treatment groups, while the mean baseline BMI was 32.8 kg/m^2."}, "[3]": {"conditions": "5 mg bid, with metformin, week 12"}, "[4]": {"conditions": "10 mg bid and 15 mg bid, combination with metformin"}, "[5]": {"conditions": "10 mg bid, with metformin, Week 12"}, "[6]": {"conditions": "15 mg bid, with metformin, Week 12"}},
  "data": [
    {"smiles": "COC(=O)C(c1ccccc1)N1CCC(c2ccc(NC(=O)c3ccccc3-c3ccc(C(F)(F)F)cc3)cc2)CC1", "note": "(single isomer, unassigned; (+)) [(+)-phenyl-(4-{4-[(4′-trifluoromethyl-biphenyl-2-carbonyl)-amino]-phenyl}-piperidin-1-yl)-acetic acid methyl ester]", "values": [
      {"measurement": "metabolism in the plasma", "setting": "[1]", "value": "rapidly metabolised in the plasma"},
      {"measurement": "systemic plasma concentrations", "setting": "[1]", "value": "very low systemic plasma concentrations"},
      {"measurement": "mean body weight loss at Week 12", "setting": "[2]; 5 mg bid, with metformin", "value": 1.71, "unit": "kg"},
      {"measurement": "mean body weight loss at Week 12 (percent)", "setting": "[2]; 5 mg bid, with metformin", "value": 1.0, "unit": "%"},
      {"measurement": "mean percentage change from baseline at week 12 in fasting plasma glucose (FPG)", "setting": "[2]; 5 mg bid, with metformin", "value": "−2.3", "unit": "%"},
      {"measurement": "mean decrease in HbA1c (%), change from baseline at Week 12", "setting": "[2]; 5 mg bid, with metformin, Week 12, baseline HbA1c 7.8±0.8%", "value": "−0.46", "unit": "%"},
      {"measurement": "HbA1c least square mean (mixed model) difference from placebo", "setting": "[2]; [3]", "value": 0.19},
      {"measurement": "absolute change from baseline in FPG (decrease)", "setting": "[2]; [3]", "value": 0.37, "unit": "mmol/L"},
      {"measurement": "LDL levels (fasting plasma lipids)", "setting": "[2]; [4]", "value": "Beneficial effects"},
      {"measurement": "ratio of LDL over HDL (fasting plasma lipids)", "setting": "[2]; [4]", "value": "Beneficial effects"},
      {"measurement": "mean body weight loss at Week 12", "setting": "[2]; 10 mg bid, with metformin", "value": 2.80, "unit": "kg"},
      {"measurement": "mean body weight loss at Week 12 (percent)", "setting": "[2]; 10 mg bid, with metformin", "value": 2.9, "unit": "%"},
      {"measurement": "mean percentage change from baseline at week 12 in fasting plasma glucose (FPG)", "setting": "[2]; 10 mg bid, with metformin", "value": "−6.1", "unit": "%"},
      {"measurement": "HbA1c least square mean (mixed model) difference from placebo", "setting": "[2]; [5]", "value": 0.28},
      {"measurement": "absolute change from baseline in FPG (decrease)", "setting": "[2]; [5]", "value": 0.063, "unit": "mmol/L"},
      {"measurement": "mean decrease in HbA1c (%), change from baseline at Week 12", "setting": "[2]; [5]", "value": "−0.55", "unit": "%"},
      {"measurement": "mean body weight loss at Week 12", "setting": "[2]; 15 mg bid, with metformin", "value": 3.37, "unit": "kg"},
      {"measurement": "mean body weight loss at Week 12 (percent)", "setting": "[2]; 15 mg bid, with metformin", "value": 3.6, "unit": "%"},
      {"measurement": "mean percentage change from baseline at week 12 in fasting plasma glucose (FPG)", "setting": "[2]; 15 mg bid, with metformin", "value": "−6.0", "unit": "%"},
      {"measurement": "HbA1c least square mean (mixed model) difference from placebo", "setting": "[2]; [6]", "value": 0.28},
      {"measurement": "absolute change from baseline in FPG (decrease)", "setting": "[2]; [6]", "value": 0.63, "unit": "mmol/L"},
      {"measurement": "mean decrease in HbA1c (%), change from baseline at Week 12", "setting": "[2]; [6]", "value": "−0.54", "unit": "%"},
      {"measurement": "change from baseline at Week 12 of HbA1c levels vs. placebo (mixed model analysis)", "setting": "[2]; all active treatment arms (5, 10, 15 mg bid), with metformin", "value": "statistically significant decrease vs. placebo"}
    ]}
  ]
}
